According to paper PMC4586081 (Journal of neuroscience research, 2008):

Assays:
α3β4 nAChR = α3β4 nAChR (Rattus norvegicus, UniProt P04757+P12392); experiment: two-electrode voltage clamp, Xenopus oocytes, peak current; assay type: cell-based
α3β2 nAChR = α3β2 nAChR (Rattus norvegicus, UniProt P04757+P12390); experiment: as above; assay type: cell-based
Chain of α3β2 nAChR (P04757 26-499): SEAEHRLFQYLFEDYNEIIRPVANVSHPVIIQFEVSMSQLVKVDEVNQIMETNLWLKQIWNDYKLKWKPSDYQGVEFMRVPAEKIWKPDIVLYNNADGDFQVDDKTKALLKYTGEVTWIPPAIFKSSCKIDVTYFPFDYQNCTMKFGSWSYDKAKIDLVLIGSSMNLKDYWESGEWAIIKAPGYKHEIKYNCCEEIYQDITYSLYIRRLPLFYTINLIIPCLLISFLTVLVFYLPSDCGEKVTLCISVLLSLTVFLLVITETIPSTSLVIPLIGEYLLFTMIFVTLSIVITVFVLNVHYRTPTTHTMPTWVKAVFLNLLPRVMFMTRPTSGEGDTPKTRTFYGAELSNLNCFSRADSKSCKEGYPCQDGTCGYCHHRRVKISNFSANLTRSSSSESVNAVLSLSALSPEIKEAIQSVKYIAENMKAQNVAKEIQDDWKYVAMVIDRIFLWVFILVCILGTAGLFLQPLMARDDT
Chain of α3β2 nAChR (P12390 25-500): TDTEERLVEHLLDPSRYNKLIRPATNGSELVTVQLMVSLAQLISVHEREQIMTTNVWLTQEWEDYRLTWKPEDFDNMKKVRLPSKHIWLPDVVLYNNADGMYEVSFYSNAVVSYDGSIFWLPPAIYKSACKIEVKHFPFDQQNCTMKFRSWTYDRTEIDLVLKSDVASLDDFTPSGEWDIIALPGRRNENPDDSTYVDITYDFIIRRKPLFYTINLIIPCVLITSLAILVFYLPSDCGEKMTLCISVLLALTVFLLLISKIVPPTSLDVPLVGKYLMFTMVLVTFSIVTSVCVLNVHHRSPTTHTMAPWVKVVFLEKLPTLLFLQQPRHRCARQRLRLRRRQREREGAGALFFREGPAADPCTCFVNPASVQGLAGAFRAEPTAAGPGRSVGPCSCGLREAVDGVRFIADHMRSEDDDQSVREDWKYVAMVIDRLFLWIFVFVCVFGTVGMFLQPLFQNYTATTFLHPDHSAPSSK

Chain of α3β4 nAChR (P04757 26-499): as the sequence (P04757 26-499) above
Chain of α3β4 nAChR (P12392 21-495): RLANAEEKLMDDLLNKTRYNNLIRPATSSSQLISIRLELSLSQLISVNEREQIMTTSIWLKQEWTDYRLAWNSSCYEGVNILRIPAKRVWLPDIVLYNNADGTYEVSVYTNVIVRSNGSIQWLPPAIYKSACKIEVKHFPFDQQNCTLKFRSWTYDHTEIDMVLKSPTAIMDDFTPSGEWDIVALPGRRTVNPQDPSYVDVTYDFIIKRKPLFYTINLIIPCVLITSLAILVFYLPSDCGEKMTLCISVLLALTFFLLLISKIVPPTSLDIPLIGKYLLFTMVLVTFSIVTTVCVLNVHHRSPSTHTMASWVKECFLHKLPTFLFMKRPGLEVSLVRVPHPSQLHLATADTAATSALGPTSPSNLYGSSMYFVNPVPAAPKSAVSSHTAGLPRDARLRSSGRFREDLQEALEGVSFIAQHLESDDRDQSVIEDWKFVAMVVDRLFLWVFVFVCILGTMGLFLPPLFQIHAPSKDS

## C[N+]1(C)CCN(c2ccccc2)CC1 [DMPP]
α3β4 nAChR
  EC50: 58 µM
α3β2 nAChR
  EC50: 55 µM
